Laboratory results: patent US8637511B2, “Aminopyrimidines useful as kinase inhibitors” (Vertex Pharmaceuticals Incorporated, priority 2005, dated 2014)
Read-outs that look alike come from different tables or passages of the source.

Tests used:
[1] = biological target: T1, JAK3 (Homo sapiens, UniProt P52333); experiment: biochemical
T1 sequence (P52333 1-1124): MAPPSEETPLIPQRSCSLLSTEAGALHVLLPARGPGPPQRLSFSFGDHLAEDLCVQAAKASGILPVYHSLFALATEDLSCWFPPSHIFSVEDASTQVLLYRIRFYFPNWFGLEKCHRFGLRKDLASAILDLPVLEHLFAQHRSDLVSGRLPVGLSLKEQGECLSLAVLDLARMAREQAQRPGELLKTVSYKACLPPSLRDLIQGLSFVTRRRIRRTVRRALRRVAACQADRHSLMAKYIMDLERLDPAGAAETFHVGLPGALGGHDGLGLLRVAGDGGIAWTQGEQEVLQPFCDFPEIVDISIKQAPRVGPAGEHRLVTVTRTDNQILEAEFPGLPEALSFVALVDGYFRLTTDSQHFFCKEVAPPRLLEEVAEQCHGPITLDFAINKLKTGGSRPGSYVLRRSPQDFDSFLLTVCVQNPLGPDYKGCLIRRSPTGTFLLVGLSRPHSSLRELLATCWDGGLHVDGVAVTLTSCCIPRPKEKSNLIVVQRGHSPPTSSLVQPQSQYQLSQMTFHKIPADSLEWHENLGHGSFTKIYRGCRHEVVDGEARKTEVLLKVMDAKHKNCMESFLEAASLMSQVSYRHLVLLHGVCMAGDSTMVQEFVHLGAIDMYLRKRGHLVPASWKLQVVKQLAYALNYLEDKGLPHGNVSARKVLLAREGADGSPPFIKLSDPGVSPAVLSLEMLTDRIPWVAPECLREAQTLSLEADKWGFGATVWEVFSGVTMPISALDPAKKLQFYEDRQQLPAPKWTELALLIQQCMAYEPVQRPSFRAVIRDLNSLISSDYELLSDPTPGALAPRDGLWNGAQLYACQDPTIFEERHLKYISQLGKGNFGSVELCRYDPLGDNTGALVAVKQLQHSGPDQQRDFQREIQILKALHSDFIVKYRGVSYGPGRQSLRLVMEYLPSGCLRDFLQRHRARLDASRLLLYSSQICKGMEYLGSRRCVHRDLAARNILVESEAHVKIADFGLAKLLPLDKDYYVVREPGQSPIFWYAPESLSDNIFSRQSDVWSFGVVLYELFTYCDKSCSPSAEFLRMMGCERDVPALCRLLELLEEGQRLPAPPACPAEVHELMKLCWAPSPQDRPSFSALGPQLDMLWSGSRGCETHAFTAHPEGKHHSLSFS

[2] = biological target: T2, FLT-3 (Homo sapiens, UniProt P36888); experiment: FLT-3 inhibition assay, radiometric filter-binding; assay type: biochemical
T2 sequence (P36888 27-993): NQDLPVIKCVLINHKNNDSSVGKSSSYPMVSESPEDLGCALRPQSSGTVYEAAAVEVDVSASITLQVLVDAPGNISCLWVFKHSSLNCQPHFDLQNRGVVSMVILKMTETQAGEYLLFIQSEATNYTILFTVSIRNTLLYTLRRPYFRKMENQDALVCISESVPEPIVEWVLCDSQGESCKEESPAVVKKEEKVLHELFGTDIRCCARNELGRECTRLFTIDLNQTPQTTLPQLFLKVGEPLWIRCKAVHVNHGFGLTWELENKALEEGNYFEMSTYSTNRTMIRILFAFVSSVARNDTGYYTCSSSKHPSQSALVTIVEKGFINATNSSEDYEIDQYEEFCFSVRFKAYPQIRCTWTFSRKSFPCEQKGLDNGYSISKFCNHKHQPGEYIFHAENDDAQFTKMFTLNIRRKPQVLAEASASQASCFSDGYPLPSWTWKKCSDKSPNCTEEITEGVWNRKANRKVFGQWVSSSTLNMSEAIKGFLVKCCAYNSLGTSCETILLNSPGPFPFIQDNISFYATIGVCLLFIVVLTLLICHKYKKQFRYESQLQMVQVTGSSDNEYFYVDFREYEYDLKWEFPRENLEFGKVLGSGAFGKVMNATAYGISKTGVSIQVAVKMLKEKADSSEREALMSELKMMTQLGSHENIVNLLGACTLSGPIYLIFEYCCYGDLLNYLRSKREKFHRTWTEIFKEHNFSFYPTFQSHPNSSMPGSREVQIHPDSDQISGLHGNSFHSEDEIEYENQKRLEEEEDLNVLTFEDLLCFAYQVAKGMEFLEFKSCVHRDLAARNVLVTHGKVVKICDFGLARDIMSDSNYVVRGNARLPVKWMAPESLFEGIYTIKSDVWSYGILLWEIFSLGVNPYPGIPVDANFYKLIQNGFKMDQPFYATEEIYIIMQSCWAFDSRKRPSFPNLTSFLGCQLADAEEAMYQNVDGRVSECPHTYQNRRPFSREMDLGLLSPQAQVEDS
Procedure: This assay monitors the 33P incorporation into a substrate poly(Glu, Tyr) 4:1 (pE4Y). […] Final substrate concentrations in the assay were 90 μM ATP and 0.5 mg/ml pE4Y (both from Sigma Chemicals, St. Louis, Mo.). […] Reactions were carried out at room temperature.
Two assay solutions were prepared. Solution 1 contains 100 mM HEPES (pH 7.5), 10 mM MgCl2, 25 mM NaCl, 1 mg/ml pE4Y and […] (containing 0.3 mCi of [γ-33^P]ATP for each reaction). Solution 2 contains 100 mM HEPES (pH 7.5), 10 mM MgCl2, 25 mM NaCl, 2 mM DTT, 0.02% BSA and 3 nM FLT-3. The assay was run on a 96 well plate by mixing 50 μl each of Solution 1 and […] of the compounds of the present invention. The reaction was initiated with Solution 2. […] All of the reaction volume was then transferred to a filter plate and washed with 5% TCA by a Harvester 9600 from TOMTEC (Hamden, Conn.). The amount of ^33P incorporation into pE4y was analyzed by a Packard Top Count Microplate Scintillation Counter (Meriden, Conn.). The data was fitted using Prism software to get an IC50 or Ki.

[3] = system: Colo205 cells; experiment: Analysis of cell proliferation and viability; assay type: cell-based; details: Homo sapiens, read-out: IC50 value
[4] = COLO 205, Colo205 cells, incubated for 72 hours
[5] = COLO 205, Colo205 cells, incubated for 96 hours

Compound | Ki [1] [nM] | Ki [2] [nM] | IC50 [3, 4] [nM] | IC50 [3, 5] [nM] | Ki ([1]; read-out: JAK3 Ki value) [nM] | Ki ([2]; read-out: FLT-3 Ki value) [nM] | IC50 ([3]; COLO 205, 96 h) [nM]
Cc1cc(Nc2cc(N3CC(F)(C4CC4)C3)nc(Sc3ccc(-c4ncc(C)o4)cc3)n2)[nH]n1 [Compound 175] | 10 to 500 | 150 to 1000 | > 200 |  |  |  | 
Cc1ccc(S(=O)(=O)Nc2ccc(Sc3nc(Nc4cc(C)[nH]n4)cc(N4CCC4)n3)cc2)cc1 [Compound 27] | 500 to 2000 | 50 to 150 |  | > 1000 |  |  | 
Cc1cc(Nc2cc(N3CC(F)(C4CC4)C3)nc(Sc3ccc(N)cc3)n2)[nH]n1 [Compound 209] | ≤ 10 | ≤ 50 |  |  |  |  | 
Cc1cc(Nc2cc(N3CC(N4CC[C@H](F)C4)C3)nc(Sc3ccc4ncccc4c3)n2)n[nH]1 [Compound 160] |  | ≤ 50 | ≤ 30 |  | ≤ 10 |  | 
Cc1ccc(C(=O)Nc2ccc(Sc3nc(Nc4cc(C)n[nH]4)cc(N4CCC4)n3)cc2)cn1 [Compound 145] | 10 to 500 |  | > 200 |  |  | 150 to 1000 | 
Cc1cc(Nc2cc(N3CCC3)nc(Sc3ccc(NC(=O)C(C)(C)C)cc3)n2)[nH]n1 [Compound 114] | 500 to 2000 |  | > 200 |  |  | 150 to 1000 | 
Cc1cc(Nc2cc(N3CCC3)nc(Sc3ccc(C(=O)N4CCCC4)cc3)n2)n[nH]1 [Compound 22] | 10 to 500 | 50 to 150 |  | > 1000 |  |  | 
COc1ccc(C(=O)Nc2ccc(Sc3nc(Nc4cc(C)n[nH]4)cc(N4CCC4)n3)cc2)cc1 [Compound 117] | 10 to 500 |  | > 200 |  |  | 150 to 1000 | 
Cc1cc(Nc2cc(N3CCC3)nc(Sc3ccc(NC(=O)C(C)CC(F)(F)F)cc3)n2)[nH]n1 (stereo not shown) [Compound 127] | 500 to 2000 |  | 30 to 200 |  |  | 150 to 1000 | 
Cc1cc(Nc2cc(N3CCC3)nc(Sc3ccc(NC(=O)CCC(F)(F)F)cc3)n2)[nH]n1 [Compound 121] | 10 to 500 |  | 30 to 200 |  |  | 50 to 150 | 
CCC(=O)Nc1ccc(Sc2nc(Nc3cc(C)n[nH]3)cc(N3CC(O)(C(C)(C)C)C3)n2)cc1 [Compound 81] |  |  | ≤ 30 | ≤ 50 | ≤ 10 | ≤ 50 | 
Cc1cc(Nc2cc(N3CCC3)nc(Sc3ccc(C(=O)NC4CCCC4)cc3)n2)n[nH]1 [Compound 23] | 500 to 2000 |  |  | > 1000 |  | 150 to 1000 | 
Cc1cc(Nc2cc(N3CC(OC(C)(C)C)C3)nc(Sc3ccc(NC(=O)c4ccccc4Cl)cc3)n2)[nH]n1 [Compound 66] | 10 to 500 | 150 to 1000 |  | 50 to 1000 |  |  | 
Cc1ccc2cc(Sc3nc(Nc4cc(C)[nH]n4)cc(N4CC(N5CCCC5)C4)n3)ccc2n1 [Compound 182] | 10 to 500 | 50 to 150 | ≤ 30 |  |  |  | 
Cc1cc(Nc2cc(N3CCC3)nc(Sc3ccc(NC(=O)OC(C)(C)C)cc3)n2)n[nH]1 [Compound 26] | 500 to 2000 | 50 to 150 |  | > 1000 |  |  | 
Cc1cc(Nc2cc(N3CCC3)nc(Sc3ccc(NC(=O)NCc4ccccc4)cc3)n2)n[nH]1 [Compound 74] | 10 to 500 | 50 to 150 |  | > 1000 |  |  | 

Compound | Ki [1] [nM] | Ki [2] [nM] | IC50 [3, 4] [nM] | IC50 [3, 5] [nM] | Ki ([1]; read-out: JAK3 Ki value) [nM] | Ki ([2]; read-out: FLT-3 Ki value) [nM] | IC50 ([3]; COLO 205, 96 h) [nM]
Cc1cc(Nc2cc(N3CCC3)nc(Sc3ccc4ccccc4c3)n2)n[nH]1 [Compound 25] | ≤ 10 | ≤ 50 |  | > 1000 |  |  | 
Cc1cc(Nc2cc(N3CCC3)nc(Sc3ccc(NC(=O)c4ccc(Cl)cc4)cc3)n2)n[nH]1 [Compound 54] | 10 to 500 | 150 to 1000 |  | 50 to 1000 |  |  | 
Cc1cc(Nc2cc(N3CC(O)(C4CC4)C3)nc(Sc3ccc4ccccc4c3)n2)n[nH]1 [Compound 131] | ≤ 10 | ≤ 50 | > 200 |  |  |  | 
Cc1cnc(Nc2cc(N3CC(N)C3)nc(Sc3ccc(NC(=O)C4CC4)cc3)n2)s1 [Compound 2] | 500 to 2000 | ≤ 50 |  | 50 to 1000 |  |  | 
CC1=NN=C(Nc2cc(N3CCC3)nc(Sc3ccc(NC(=O)c4cccc(Cl)c4F)cc3)n2)C1 [Compound 61] |  | 150 to 1000 |  | 50 to 1000 | 10 to 500 |  | 
COC1CN(c2cc(Nc3cc(C)[nH]n3)nc(Sc3ccc(NC(=O)c4ccccc4Cl)cc3)n2)C1 [Compound 12] | ≤ 10 | 50 to 150 |  | ≤ 50 |  |  | 
Cc1cc(Nc2cc(N3CCC3)nc(Sc3ccc(NC(=O)C4CCCCC4)cc3)n2)n[nH]1 [Compound 30] | 10 to 500 |  |  | 50 to 1000 |  | 150 to 1000 | 
Cc1cc(Nc2cc(N3CCC3)nc(Sc3ccc(NC(=O)C(F)(F)F)cc3)n2)[nH]n1 [Compound 158] |  |  | > 200 |  | ≤ 10 | 50 to 150 | 
CC1=NN=C(Nc2cc(N3CCC3)nc(Sc3ccc(NC(=O)C4CCCN4C)cc3)n2)C1 (stereo not shown) [Compound 6] |  | 150 to 1000 |  | 50 to 1000 |  |  | 
Cc1cc(Nc2cc(N3CCC3)nc(Sc3ccc(NC(=O)c4cc(C)nc(Cl)c4)cc3)n2)[nH]n1 [Compound 149] | 10 to 500 |  | > 200 |  |  | 150 to 1000 | 
CCC(=O)Nc1ccc(Sc2nc(Nc3cc(C)n[nH]3)cc(N3CC(C)(O)C3)n2)cc1 [Compound 71] |  |  |  | ≤ 50 | 10 to 500 | 50 to 150 | 
CCC(=O)Nc1ccc(Sc2nc(Nc3cc(C)n[nH]3)cc(N3CC(C)(OC(C)C)C3)n2)cc1 [Compound 95] | 10 to 500 | 50 to 150 |  | ≤ 50 |  |  | 
Cc1cc(Nc2cc(N3CCC3)nc(Sc3ccc(C(=O)NCc4ccccc4Cl)cc3)n2)n[nH]1 [Compound 24] | 500 to 2000 | 150 to 1000 |  | > 1000 |  |  | 
Cc1cnc(Nc2cc(N3CCC3)nc(Sc3ccc(NC(=O)C4CC4)cc3)n2)s1 [Compound 4] | 500 to 2000 | 50 to 150 |  | 50 to 1000 |  |  | 
CCC(=O)Nc1ccc(Sc2nc(Nc3cc(C)[nH]n3)cc(N3CCC3)n2)cc1 [Compound 14] |  |  |  |  | 10 to 500 | 50 to 150 | 50 to 1000
Cc1cc(Nc2cc(N3CCC3)nc(Sc3ccc(N(C)C(=O)c4ccccc4F)cc3)n2)n[nH]1 [Compound 10] | 10 to 500 | 50 to 150 |  |  |  |  | 
